The numbers were not newly measured in patent publication US20240423896A1, “METHOD FOR IMPROVING THE TACTILE SENSATION OF DYED KERATINOUS FIBRES, IN PARTICULAR HUMAN HAIR” (HENKEL AG & CO. KGAA, priority 2021, published 2024), which cites them from elsewhere.

For this series the following is noted: 25° C.

Structures are written as SMILES.

With `O=C([O-])c1c(Cl)c(Cl)c(Cl)c(Cl)c1-c1c2cc(Br)c(=O)c(Br)c-2oc2c(Br)c([O-])c(Br)cc12.[Na+].[Na+]` [Acid Red 92, disodium salt of 3,4,5,6-tetrachloro-2-(1,4,5,8-tetrabromo-6-hydroxy-3-oxanthene-9-yl) benzoic acid], the solubility in water result is on record as “greater than 10 g/L”.
`O=C([O-])C1=NN(c2ccc(S(=O)(=O)[O-])cc2)C(=O)C1N=Nc1ccc(S(=O)(=O)[O-])cc1.[Na+].[Na+].[Na+]` (centres unmarked) [Acid Yellow 23, trisodium salt of 4,5-dihydro-5-oxo-1-(4-sulfophenyl)-4-((4-sulfophenyl)azo)-1H-pyrazole-3-carboxylic acid]: the “solubility in water (in words)” value is “readily soluble in water”.
Turning to `Nc1cc(S(=O)(=O)[O-])cc2cc(S(=O)(=O)[O-])c(N=Nc3ccccc3)c(O)c12.[Na+].[Na+]` [Acid Red 33, disodium salt of 5-amino-4-hydroxy-3-(phenylazo)-naphthalene-2,7-disulfonate], the solubility in water was 2.5 mg/mL.
Turning to `CCN(Cc1cccc(S(=O)(=O)[O-])c1)c1ccc(C(=C2C=CC(=[N+](CC)Cc3cccc(S(=O)(=O)[O-])c3)C=C2)c2ccccc2S(=O)(=O)[O-])cc1.[Na+].[Na+]` [Acid Blue 9, disodium salt of 2-({4-[N-ethyl(3-sulfonatobenzyl]amino]phenyl}{4-(N-ethyl(3-sulfonatobenzyl)imino]-2,5-cyclohexadien-1-ylidene}methyl)-benzenesulfonate], the water solubility result was “more than 20 wt. %”.
On to `O=S(=O)([O-])c1ccc(N=Nc2c(O)ccc3ccccc23)cc1.[Na+]` [Acid Orange 7, sodium salt of 4-[(2-hydroxy-1-naphthyl)azo]benzene sulphonate], for which the solubility in water result is reported as “more than 7 g/L”.
